No end group written: not given here.
Legend:
[1] = tested on: CYP1A1, TNF-a, IL-6, IL-1b, COX-2 mRNA; assay: RT-PCR of CYP1A1 and inflammatory molecules induced by TCDD; type: cell-based, human; conditions: HaCaT cells; 10 nM TCDD; 50 μM peptide; 6 hours or 24 hours
Description: (§1) HaCaT cells, human keratinocyte cells, were seeded on a 6-well plate at a density of 3×10^5 cells/well and cultured overnight. Subsequently, 10 nM of TCDD and 50 μM of the peptide consisting of an amino acid sequence of SEQ ID NO: 1, 2, or 3 were added to the culture medium. After 30 minutes of reaction, the cells were treated for 6 hours or 24 hours and collected to separate RNA therefrom. After quantifying RNA, cDNA was synthesized using a cDNA synthesis kit (Intron, Korea). Then, polymerase chain reaction (PCR) was performed using a PCR PreMix kit (Intron, Korea) and a primer for each of CYP1A1, TNF-a, IL-6, IL-1 b, and COX-2 shown in Table 4. Then, by running the resultant on a 5% agarose gel, the expression levels of mRNA of the growth factors were compared under the conditions of treating the respective samples, and the results are shown in FIGS. 5A to 5C.

[2] = tested on: CYP1A1, TNF-a, IL-6, IL-1b, COX-2 mRNA; assay: RT-PCR of CYP1A1 and inflammatory molecules induced by particulate matter; type: cell-based, human; conditions: HaCaT cells; 10 nM particulate matter; 50 μM peptide; 6 hours or 24 hours
Description: as §1, with “particulate matter (PM)” for “TCDD”, “PCR” for “polymerase chain reaction (PCR)”, “IL-1b,” for “IL-1 b,”, “5.” for “4.”, “7A” for “5A”, “7C.” for “5C.”

Substance	effect on expressions of CYP1A1 and inflammatory factors induced by TCDD (in words) [1]	effect on expressions of CYP1A1 and inflammatory factors induced by particulate matter (in words) [2]
DVENTS [SEQ ID NO: 3, DVENTS]	inhibiting expressions of CYP1A1 and various inflammatory factors induced by TCDD	inhibiting expressions of CYP1 A1 and various inflammatory factors induced by particulate matter
ILGRWCG [SEQ ID NO: 2, ILGRWCG]	inhibiting expressions of CYP1A1 and various inflammatory factors induced by TCDD	inhibiting expressions of CYP1 A1 and various inflammatory factors induced by particulate matter
KWGGGRY [SEQ ID NO: 1, KWGGGRY]	inhibiting expressions of CYP1A1 and various inflammatory factors induced by TCDD	inhibiting expressions of CYP1 A1 and various inflammatory factors induced by particulate matter
